How the values were obtained:
[1] = tested on: metastatic triple negative breast cancer (mTNBC); experiment: Clinical tumor response of metastatic/locally recurrent TNBC patients to prior and molecularly-selected therapy (TNBC personalized genomics trial); type: in vivo, human
Source text: The secondary objective is to conduct a comprehensive evaluation of genetic mutations in TNBC that may accelerate the development of rational and precise therapeutics; and to evaluate patient's best response to molecularly-selected therapy.
A patient eligible for clinical trial inclusion in this study had to meet all of the following criteria: (1) has a metastatic or locally recurrent triple negative breast cancer and is scheduled for medically indicated surgical biopsy or resection of disease; (2) have measurable or evaluable (nonmeasurable) disease based on results generated by RECIST v 1.1 (Eisenhauera, 2009) presented after surgical biopsy/resection. Following surgical resection, if the tumor sample is found to be inadequate for comprehensive molecular analysis, the patient would be deemed ineligible and would be replaced; (3) has received at least 1 prior chemotherapeutic regimen for their metastatic or locally recurrent TNBC prior to initiating the molecularly-selected therapy. There is no limit on the prior therapy for TNBC. Intervening therapies were strongly recommended to be held off if possible from the time of biopsy to the completion of sequencing so as not to change the cancer under the selective pressure of treatment, so that the sequencing results would be reflective of the current cancer; (4) is >18 years of age; (5) has an expected survival of at least 6 months, as estimated by the treating oncologist; (6) has planned surgical resection (indicated for the medical care of the patient) that will yield a minimum fresh/frozen tumor sample of 1 cm×1 cm×1 cm that will be available for molecular profiling analysis; (6) is agreeable to having a blood sample (10-20mL) drawn and analyzed to compare their normal genetic profile to that of their tumor sample; (7) has signed the most recent Patient Informed Consent Form and a Patient Authorization Form.
A patient would be excluded from this study if she meets any of the following criteria: (1) has breast cancer other than metastatic or locally recurrent TNBC; and surgical resection of the recurrent TNBC will render the patient as “no evidence of disease” (NED), and thus to be replaced; (2) has a history of heart disease, other conditions that would prevent treatment with a standard chemotherapeutic agent; (3) has evidence of CNS involvement that is progressing or that requires radiation, resection or steroid therapy; (4) has a serious uncontrolled intercurrent medical or psychiatric illness, including serious infection; (5) is pregnant or nursing; (6) is unable to comply with requirements of study.
Generally, 14 patients with previously treated triple negative breast cancer were included in the clinical study (Table 11). Samples were collected for sequencing with the SOLiD™ system (Applied Biosystems, Carlsbad, Calif.), and the patients were treated according to what is found after CLIA certification of the target.
The baseline was measured at the beginning of the treatment, after 2 cycles (close to two months), 75% regression in primary lesion were observed (FIG. 11).
Through the deep molecular profiling study described herein, a series of somatic events within individual tumors were detected that have informed or may have predicted the effectiveness of targeted therapies for some patients. Table 21 provides key information on therapeutically actionable concepts and clinical outcomes in the patient cohort used for this example.

[2] = tested on: BT20 breast cancer cells; conditions: reactivation of epigenetically silenced ERBB4; cited from earlier work

For `C=C1C[C@@H]2CC[C@@]34C[C@H]5O[C@H]6[C@@H](O3)[C@H]3O[C@H](CC[C@@H]3O[C@H]6[C@H]5O4)CC(=O)C[C@@H]3[C@@H](OC)[C@@H](C[C@H](O)CN)O[C@H]3C[C@H]3O[C@@H](CC[C@@H]1O2)C[C@@H](C)C3=C` [Eribulin, eribulin], the Best results ([1]; Patient # 4, biomarker profile guided treatment) was “Stable Disease”.

With `Cn1c(=O)n(-c2ccc(C(C)(C)C#N)cc2)c2c3cc(-c4cnc5ccccc5c4)ccc3ncc21` [BEZ235] the reduction in nodes ([1]; Patient 14) was 21% and the Best results ([1]; Patient # 3, biomarker profile guided treatment) was “Progressive Disease”.

For `Nc1ncn([C@H]2C[C@H](O)[C@@H](CO)O2)c(=O)n1` [5-aza-2′-deoxycytidine], the apoptosis [2] is given as “increased apoptosis”.

In the case of `NC(=O)c1ccc(I)c([N+](=O)[O-])c1` [Iniparib], the clinical response ([1]; patient mTNBC9 / TNBC-009 (DNA damage and double-strand break repair defects)) is reported as “responsive”.

For `Cn1c(=O)n(-c2ccc(C(C)(C)C#N)cc2)c2c3cc(-c4cnc5ccccc5c4)ccc3ncc21` [BEX235], the Best results ([1]; Patient # 1, biomarker profile guided treatment (hit only one arm of what suggested MEK/AKT)) was “Stable Disease”.

Source: patent US20170166981A1, “BIOMARKERS AND METHODS OF USE THEREOF” (THE TRANSLATIONAL GENOMICS RESEARCH INSTITUTE, priority 2011, published 2017)
